In US20250144067A1, “PERSONALIZED STARVATION THERAPY FOR CANCER” (Faeth Therapeutics, Inc., priority 2021, published 2025):
Structures can show the parent of a compound that is named as a salt. Where two headings read alike, the source gives them in different places.

Legend:
[1] = test system: NCI-H292 lung cancer cells; assay: FDA drug screening, complete media vs cholesterol-free media with simvastatin (TABLE 2); format: cell-based, human
[2] = test system: NCI-H292 lung cancer cells; assay: FDA drug screening, complete media vs cholesterol-free media without statin (TABLE 1); format: cell-based, human
[3] = NCI-H292 cells, cholesterol-free media with simvastatin 0.04 μM, cell growth value in FDA drug screen
[4] = NCI-H292 cells, complete media, cell growth value in FDA drug screen
[5] = complete media minus cholesterol-free media + simvastatin, >0 enhanced anti-cancer activity, about 0 neutral, <0 antagonist
[6] = Complete minus Cholesterol-free, >0 enhanced anti-cancer activity, about 0 neutral, <0 antagonist
[7] = NCI-H292 cells, cholesterol-free media without statin
[8] = NCI-H292 cells, cholesterol-free media with simvastatin 0.04 μM, FDA drug library screen (TABLE 2)
[9] = NCI-H292 cells, complete media, FDA drug library screen (TABLE 2)
[10] = complete media minus cholesterol-free media + simvastatin (0.04 μM), >0 enhanced anti-cancer activity, about 0 neutral, <0 antagonist
[11] = NCI-H292 cells, cholesterol-free media without statin, FDA drug library screen
[12] = NCI-H292 cells, complete media, FDA drug library screen
[13] = NCI-H292 cells, FDA library drug in cholesterol-free media with simvastatin 0.04 μM
[14] = NCI-H292 cells, FDA library drug in complete media
[15] = complete media vs cholesterol-free media + simvastatin (0.04 μM), >0 enhanced anti-cancer activity, about 0 neutral, <0 antagonist
[16] = complete vs cholesterol-free media, >0 enhanced anti-cancer activity, about 0 neutral, <0 antagonist
[17] = NCI-H292 cells, FDA drug library screen, cholesterol-free media with simvastatin 0.04 μM
[18] = NCI-H292 cells, FDA drug library screen, complete media
[19] = NCI-H292 cells, drug in cholesterol-free media with simvastatin 0.04 μM
[20] = NCI-H292 cells, drug in complete media
[21] = NCI-H292 cells in cholesterol-free media without statin
[22] = NCI-H292 cells in complete media
[23] = complete vs cholesterol-free media, greater than 0 enhanced anti-cancer activity, about 0 neutral, below 0 antagonists
[24] = Complete minus Cholesterol-free, greater than 0 enhanced anti-cancer activity, about 0 neutral, below 0 antagonist
[25] = NCI-H292 cells, FDA drug library screen, cholesterol-free media without statin

SMILES: O=c1c(-c2ccc(O)cc2)coc2c([C@@H]3O[C@H](CO)[C@@H](O)[C@H](O)[C@H]3O)c(O)ccc12 [Puerarin]
- Cholesterol-free media + simvastatin (0.04 μM) [1, 3]: 0.9456
- Complete Media [1, 4]: 1.081
- Difference [1, 5]: 0.14
- Difference [2, 6]: −0.27
- Cholesterol-free [2, 7]: 1.203
- Complete ([2]; NCI-H292 cells, complete media): 0.9306

SMILES: COc1ccc(C[C@H](N)C(=O)N[C@H]2[C@@H](O)[C@H](n3cnc4c(N(C)C)ncnc43)O[C@@H]2CO)cc1 [Puromycin (dihydrochloride)]
- Cholesterol-free media + simvastatin (0.04 μM) [1, 8]: −0.002227
- Complete Media [1, 9]: −0.05066
- Difference [1, 10]: −0.05
- Difference [2, 6]: −0.02
- Cholesterol-free [2, 11]: 0.005958
- Complete [2, 12]: −0.01645

SMILES: CN1CCCN=C1/C=C/c1cccs1.O=C(O)c1cc2ccccc2c(Cc2c(O)c(C(=O)O)cc3ccccc23)c1O [Pyrantel (pamoate)]
- Cholesterol-free media + simvastatin (0.04 μM) [1, 13]: 1.254
- Complete Media [1, 14]: 0.856
- Difference [1, 15]: −0.40
- Cholesterol-free [2, 11]: 1.079
- Complete [2, 12]: 1.203
- Difference [2, 16]: 0.12

SMILES: NC(=O)c1cnccn1 [Pyrazinamide]
- Cholesterol-free media + simvastatin (0.04 μM) [1, 17]: 0.9396
- Complete Media [1, 18]: 0.8009
- Difference [1, 15]: −0.14
- Difference [2, 6]: 0.04
- Cholesterol-free [2, 11]: 0.9745
- Complete [2, 12]: 1.011

SMILES: CN(C)C(=O)Oc1ccc[n+](C)c1.[Br-] [Pyridostigmine (bromide)]
- Cholesterol-free media + simvastatin (0.04 μM) [1]: 1.546
- Complete Media [1]: 1.09
- Difference [1]: −0.46
- Cholesterol-free [2]: 0.882
- Complete [2]: 0.9353
- Difference [2]: 0.05

SMILES: Cc1ncc(COP(=O)(O)O)c(C=O)c1O [Pyridoxal phosphate]
- Cholesterol-free media + simvastatin (0.04 μM) [1, 19]: 1.11
- Complete Media [1, 20]: 0.9056
- Difference [1, 15]: −0.20
- Cholesterol-free [2, 11]: 1.045
- Complete [2, 12]: 1.512
- Difference [2, 16]: 0.47

SMILES: Cc1ncc(CO)c(CO)c1O.Cl [Pyridoxine (hydrochloride)]
- Cholesterol-free media + simvastatin (0.04 μM) [1, 13]: 1.33
- Complete Media [1, 14]: 0.9936
- Difference ([1]; complete media vs cholesterol-free media + simvastatin (0.04 μM), […]): −0.34
- Difference ([2]; Complete minus Cholesterol-free, […]): −0.61
- Cholesterol-free [2, 21]: 1.496
- Complete [2, 22]: 0.8868

SMILES: CCc1nc(N)nc(N)c1-c1ccc(Cl)cc1 [Pyrimethamine]
- Cholesterol-free media + simvastatin (0.04 μM) [1, 19]: 1.205
- Complete Media [1, 20]: 1.02
- Difference [1, 15]: −0.19
- Cholesterol-free [2, 11]: 1.197
- Complete [2, 12]: 1.426
- Difference [2, 16]: 0.23

SMILES: Cc1ncc(CSSCc2cnc(C)c(O)c2CO)c(CO)c1O [Pyrithioxin (dihydrochloride)]
- Cholesterol-free media + simvastatin (0.04 μM) [1, 17]: 0.9622
- Complete Media [1, 18]: 1.11
- Difference [1, 5]: 0.15
- Cholesterol-free [2, 11]: 0.8349
- Complete [2, 12]: 1.062
- Difference [2, 16]: 0.23

SMILES: Cl.Cl.[O-][S+]1c2ccccc2N=C(N2CCN(CCOCCO)CC2)c2ccccc21 (stereo not shown) [Quetiapine sulfoxide (dihydrochloride)]
- Cholesterol-free media + simvastatin (0.04 μM) [1, 17]: 1.184
- Complete Media [1, 18]: 1.082
- Difference [1, 15]: −0.10
- Cholesterol-free [2, 7]: 1.151
- Complete ([2]; NCI-H292 cells, complete media): 0.7759
- Difference [2, 23]: −0.38

SMILES: OCCOCCN1CCN(C2=Nc3ccccc3Sc3ccccc32)CC1 [Quetiapine]
- Cholesterol-free media + simvastatin (0.04 μM) [1, 3]: 0.8037
- Complete Media [1, 4]: 0.9281
- Difference [1, 5]: 0.12
- Difference [2, 24]: −0.09
- Cholesterol-free [2, 25]: 0.8483
- Complete [2, 18]: 0.7581

SMILES: CCCN1CC(NS(=O)(=O)N(CC)CC)CC2Cc3c(O)cccc3CC21 (stereo not shown) [Quinagolide (hydrochloride)]
- Cholesterol-free media + simvastatin (0.04 μM) [1, 3]: 0.9283
- Complete Media [1, 4]: 1.019
- Difference [1, 5]: 0.09
- Difference [2, 24]: −0.15
- Cholesterol-free [2, 25]: 1.129
- Complete [2, 18]: 0.9753

SMILES: CCOC(=O)[C@H](CCc1ccccc1)N[C@@H](C)C(=O)N1Cc2ccccc2C[C@H]1C(=O)O [Quinapril (hydrochloride)]
- Cholesterol-free media + simvastatin (0.04 μM) [1, 13]: 1.23
- Complete Media [1, 14]: 0.862
- Difference [1, 15]: −0.37
- Cholesterol-free [2, 11]: 0.6191
- Complete [2, 12]: 0.9945
- Difference [2, 16]: 0.38

SMILES: C#C[C@]1(O)CC[C@H]2[C@@H]3CCc4cc(OC5CCCC5)ccc4[C@H]3CC[C@@]21C [Quinestrol]
- Cholesterol-free media + simvastatin (0.04 μM) [1, 8]: 0.01915
- Complete Media [1, 9]: 0.02153
- Difference [1, 10]: 0.00
- Cholesterol-free [2, 7]: 1.478
- Complete ([2]; NCI-H292 cells, complete media): 1.012
- Difference [2, 23]: −0.47

SMILES: C=C[C@H]1C[N@@]2CC[C@H]1C[C@@H]2[C@@H](O)c1ccnc2ccc(OC)cc12 [Quinidine hydrochloride monohydrate]
- Cholesterol-free media + simvastatin (0.04 μM) [1, 8]: 1.46
- Complete Media [1, 9]: 1.402
- Difference [1, 10]: −0.06
- Difference [2, 6]: 0.01
- Cholesterol-free [2, 11]: 1.211
- Complete [2, 12]: 1.222

SMILES: C=C[C@H]1C[N@@]2CC[C@H]1C[C@@H]2[C@@H](O)c1ccnc2ccc(OC)cc12 [Quinidine]
- Complete Media [1, 14]: 0.8492
- Difference [1, 15]: −0.29
- Complete [2, 12]: 1.951
- Difference [2, 16]: 0.93

SMILES: C=C[C@H]1C[N@@]2CC[C@H]1C[C@H]2[C@H](O)c1ccnc2ccc(OC)cc12 [Quinine (hydrochloride dihydrate)]
- Cholesterol-free media + simvastatin (0.04 μM) [1, 17]: 1.208
- Difference [1, 15]: −0.15
- Difference [2, 6]: 0.03

SMILES: C=C[C@H]1C[N@@]2CC[C@H]1C[C@H]2[C@H](O)c1ccnc2ccc(OC)cc12 [Quinine]
- Difference [1, 15]: −0.10
- Cholesterol-free [2, 7]: 1.498
- Difference [2, 23]: −0.37

SMILES: CC(C)(C)c1cc(NC(=O)Nc2ccc(-c3cn4c(n3)sc3cc(OCCN5CCOCC5)ccc34)cc2)no1 [Quizartinib]
- Cholesterol-free media + simvastatin (0.04 μM) [1, 19]: 1.022
- Complete Media [1, 20]: 0.8076
- Difference [1, 15]: −0.21
- Cholesterol-free [2, 11]: 0.663
- Complete [2, 12]: 0.7657
- Difference [2, 16]: 0.10

SMILES: COCCCOc1ccnc(C[S+]([O-])c2nc3ccccc3[n-]2)c1C.[Na+] (stereo not shown) [Rabeprazole (sodium)]
- Cholesterol-free media + simvastatin (0.04 μM) [1, 13]: 1.461
- Complete Media [1, 14]: 0.9065
- Difference [1, 15]: −0.55
- Difference ([2]; Complete minus Cholesterol-free, greater than 0 enhanced anti-cancer activity, about 0 neutral, below 0 antagonists): −0.70
- Cholesterol-free [2, 21]: 1.634
- Complete [2, 22]: 0.9326

SMILES: CC(=O)SCC(Cc1ccccc1)C(=O)NCC(=O)OCc1ccccc1 (stereo not shown) [Racecadotril]
- Cholesterol-free media + simvastatin (0.04 μM) [1, 19]: 1.092
- Complete Media [1, 20]: 0.8523
- Difference [1, 15]: −0.24
- Cholesterol-free [2, 7]: 1.294
- Complete ([2]; NCI-H292 cells, complete media): 0.8911
- Difference [2, 23]: −0.40

SMILES: O=C(c1ccc(OCCN2CCCCC2)cc1)c1c(-c2ccc(O)cc2)sc2cc(O)ccc12 [Raloxifene (hydrochloride)]
- Cholesterol-free media + simvastatin (0.04 μM) [1, 17]: 0.3884
- Complete Media [1, 18]: 0.7486
- Difference [1, 5]: 0.36
- Cholesterol-free [2, 11]: 0.9028
- Complete [2, 12]: 1.184
- Difference [2, 16]: 0.28

SMILES: Cc1nnc(C(=O)NC(C)(C)c2nc(C(=O)NCc3ccc(F)cc3)c(O)c(=O)n2C)o1 [Raltegravir (potassium salt)]
- Cholesterol-free media + simvastatin (0.04 μM) [1]: 0.8687
- Complete Media [1]: 0.9051
- Difference [1]: 0.04
- Cholesterol-free [2]: 1.332
- Complete [2]: 0.9188
- Difference [2]: −0.41

SMILES: Cc1nnc(C(=O)NC(C)(C)c2nc(C(=O)NCc3ccc(F)cc3)c(O)c(=O)n2C)o1 [Raltegravir]
- Cholesterol-free media + simvastatin (0.04 μM) [1]: 1.209
- Complete Media [1]: 1.119
- Difference [1]: −0.09
- Cholesterol-free [2]: 1.135
- Complete [2]: 0.9505
- Difference [2]: −0.18

SMILES: Cc1nc2ccc(CN(C)c3ccc(C(=O)N[C@@H](CCC(=O)O)C(=O)O)s3)cc2c(=O)[nH]1 [Raltitrexed]
- Cholesterol-free media + simvastatin (0.04 μM) [1, 8]: 0.1121
- Complete Media [1, 9]: 0.0907
- Difference [1, 10]: −0.02
- Difference [2, 6]: −0.24
- Cholesterol-free [2, 7]: 0.3503
- Complete ([2]; NCI-H292 cells, complete media): 0.1117

SMILES: O=C(O)CCn1c2c(c3ccccc31)C[C@H](NS(=O)(=O)c1ccc(F)cc1)CC2 [Ramatroban]
- Cholesterol-free media + simvastatin (0.04 μM) [1, 17]: 1.061
- Complete Media [1, 18]: 0.9101
- Difference [1, 15]: −0.15
- Difference [2, 6]: −0.25
- Cholesterol-free [2, 7]: 0.905
- Complete ([2]; NCI-H292 cells, complete media): 0.6524

SMILES: CCC(=O)NCC[C@@H]1CCc2ccc3c(c21)CCO3 [Ramelteon]
- Cholesterol-free media + simvastatin (0.04 μM) [1, 17]: 1.166
- Complete Media [1, 18]: 1.318
- Difference [1, 5]: 0.15
- Difference [2, 24]: −0.10
- Cholesterol-free [2, 25]: 0.9442
- Complete [2, 18]: 0.8409

SMILES: CCOC(=O)[C@H](CCc1ccccc1)N[C@@H](C)C(=O)N1[C@H](C(=O)O)C[C@@H]2CCC[C@@H]21 [Ramipril]
- Cholesterol-free media + simvastatin (0.04 μM) [1, 8]: 1.055
- Complete Media [1, 9]: 0.9941
- Difference [1, 10]: −0.06
- Difference [2, 6]: −0.24
- Cholesterol-free [2, 7]: 1.132
- Complete ([2]; NCI-H292 cells, complete media): 0.8936
